Values quoted from earlier work as cited in patent US20240229143A1, “FORMULATION OF PEPTIDE IMMUNOTHERAPIES” (priority 2020, published 2024).

Experiments:
[1] = single amino acid; octanol:water
[2] = single amino acid
[3] = single amino acid; remark: listed apart in the source

Structure (SMILES)	Log P [1]	Log D7.4 [2]	pl [3]
C[C@H](N)C(=O)O [Alanine (Ala)]	−2.89	−0.27	6.00
N=C(N)NCCC[C@H](N)C(=O)O [Arginine (Arg)]	–	−1.65	10.76
NC(=O)C[C@H](N)C(=O)O [Asparagine (Asn)]	−3.41	−0.98	5.41
N[C@@H](CC(=O)O)C(=O)O [Asparic Acid (Asp)]	−3.38	−2.06	2.77
N[C@@H](CS)C(=O)O [Cysteine (Cys)]	–	–	5.07
N[C@@H](CCC(=O)O)C(=O)O [Glutamic Acid (Glu)]	−2.94	−2.19	3.22
NC(=O)CC[C@H](N)C(=O)O [Glutamine (Gln)]	−3.24	–	–
NCC(=O)O [Glycine (Gly)]	−3.25	−0.22	5.97
N[C@@H](Cc1c[nH]cn1)C(=O)O [Histidine (His)]	−3.56	−0.44	7.59
CC[C@H](C)[C@H](N)C(=O)O [Isoleucine (Ile)]	−1.72	0.69	6.20
CC(C)C[C@H](N)C(=O)O [Leucine (Leu)]	−1.61	–	–
NCCCC[C@H](N)C(=O)O [Lysine (Lys)]	−4.44	−2.27	9.74
CSCC[C@H](N)C(=O)O [Methionine (Met)]	−1.84	0.51	5.74
N[C@@H](Cc1ccccc1)C(=O)O [Phenylalanine (Phe)]	−1.63	1.16	5.48
O=C(O)[C@@H]1CCCN1 [Proline (Pro)]	−2.50	0.15	6.30
N[C@@H](CO)C(=O)O [Serine (Ser)]	–	–	5.68
C[C@@H](O)[C@H](N)C(=O)O [Threonine (Thr)]	−2.92	−0.26	5.60
N[C@@H](Cc1c[nH]c2ccccc12)C(=O)O [Tryptophan (Trp)]	−1.75	1.46	5.89
N[C@@H](Cc1ccc(O)cc1)C(=O)O [Tyrosine (Tyr)]	–	–	5.66
CC(C)[C@H](N)C(=O)O [Valine (Val)]	−2.08	0.32	5.96
